Values quoted from earlier work as cited in patent US7977378B1, “Compositions and methods for enhancing weight-loss by cyclical administration of compounds” (priority 2007, dated 2011).

What was measured:
[1] = tested on: adipocyte; conditions: in vitro
[2] = tested on: 3T3-L1 preadipocytes
[3] = tested on: hepatic glucose-6-phosphatase
[4] = tested on: hepatic TG; conditions: 60 mg/kg·day
[5] = tested on: endothelium-intact rat aorta; conditions: equal potency
[6] = up to 200 mg kg-1
[7] = tested on: contractile effect of noradrenaline; conditions: 2×10(−6) and 1×10(−7) M
[8] = tested on: contractile responses evoked by phenylephrine and high K+; conditions: 4 approximately 12 microg/mL
[9] = tested on: guinea-pig isolated right atria
[10] = tested on: bovine adrenal medulla

C=CCSSC=CC[S+]([O-])CC=C (mixture of isomers) [ajoene]
Adipocyte apoptosis [1]: induced

Cn1c(=O)c2c(ncn2C)n(C)c1=O [caffeine]
Increase of energy expenditure (after ingestion): 13%
Increase of oxidative FFA disposal (after ingestion): 44%
Share of lipids oxidized (after ingestion): 24%
Share of lipids recycled (after ingestion): 76%
Oxidative FFA disposal (after ingestion (from 236+/−21)): 340+/−16 micro mol/min
Non-oxidative FFA disposal (after ingestion (from 455+/−66)): 1054+/−242 micro mol/min
Increase of non-oxidative FFA disposal (after ingestion, P<0.01): 2.3 fold
Increase of lipid turnover (steady state (last hour of the test) after ingestion, P<0.005): 2 fold

O=C(/C=C/c1ccc(O)c(O)c1)O[C@@H]1C[C@](O)(C(=O)O)C[C@@H](O)[C@H]1O [chlorogenic acid]
Effect on cell cycle [2]: cell cycle arrest in the G1 phase
Inhibition of hepatic glucose-6-phosphatase [3]: selectively inhibit
Level of hepatic TG [4]: significantly reduced

C[n+]1c2n(c(=O)c3ccccc31)CCc1c-2[nH]c2ccccc12 [dehydroevodiamine]
Vasodilatory effect [5]: vasodilatory effect

COc1ccc([C@@H]2CC(=O)c3c(O)cc(O)cc3O2)cc1O [hesperitin]
Effect on intestinal transit [6]: no effect

O=C(O)/C=C/c1cccc(O)c1 [m-coumaric acid]
Effect on cell cycle [2]: cell cycle arrest in the G1 phase

O=C1C[C@@H](c2ccc(O)cc2)Oc2cc(O)cc(O)c21 [naringenin]
Contractile effect of noradrenaline [7]: increased

O=C(O)/C=C/c1ccccc1O [o-coumaric acid]
Effect on cell cycle [2]: cell cycle arrest in the G1 phase

(−)-epigallocatechin gallate [EGCG]
Adipocyte apoptosis [1]: induced
Effect on contractile responses evoked by phenylephrine and high K+ [8]: did not affect

TNF-alpha
Adipocyte apoptosis [1]: induced

catechin
Effect on intestinal transit [6]: no effect

evodiamine
Inotropic and chronotropic effects [9]: positive inotropic and chronotropic effects
Catecholamine secretion [10]: stimulate
Insensitivity of the cells to acetylcholine or high K+ stimulation [10]: reversed insensitivity
Vasodilatory effect [5]: vasodilatory effect
